Results on 19 compounds are retold here after patent US10227344B2, “CK2 inhibitors, compositions and methods thereof” (Polaris Pharmaceuticals, Inc., priority 2016, dated 2019).

SMILES strings stand for the structures. Counter-ions that a name gives are not always drawn.

For one data set, the target named is purified CK2α enzyme (Homo sapiens, UniProt P68400). In words: CK2 Protein Kinase Inhibition Assay (coupled PK/LDH assay). The data set is classed as biochemical. Conditions: CK2 enzyme 25 nM, 100 μM ATP, 37° C., Morrison equation. The method, boiled down:
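Purified CK2α at 25 nM final, 1.5 mM peptide substrate, 100 μM ATP, pH 8.25 Tris buffer; compounds pre-incubated 10 min at 37° C. ADP coupled via PK/LDH to NADH loss at 340 nm over 30 min, 37° C. Ki from rate versus concentration by Morrison equation, triplicate points.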

Sequence of purified CK2α enzyme (P68400 whole entry): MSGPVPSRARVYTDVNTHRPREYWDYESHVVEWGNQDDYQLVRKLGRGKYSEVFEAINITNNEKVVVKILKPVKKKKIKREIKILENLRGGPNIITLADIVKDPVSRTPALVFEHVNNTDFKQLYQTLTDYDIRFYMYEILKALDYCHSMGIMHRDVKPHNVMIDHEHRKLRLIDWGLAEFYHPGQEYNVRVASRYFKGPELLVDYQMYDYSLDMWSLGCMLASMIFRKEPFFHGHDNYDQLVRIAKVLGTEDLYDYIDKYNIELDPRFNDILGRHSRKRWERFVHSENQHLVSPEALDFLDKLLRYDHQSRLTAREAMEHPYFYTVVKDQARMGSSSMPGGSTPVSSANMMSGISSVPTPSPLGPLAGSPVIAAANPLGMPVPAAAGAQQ

As for `C[S+]([O-])Cc1cc(Nc2cc(NC3CC3)n3ncc(C#N)c3n2)ccc1OCCN` (racemic) [Example 31, (±)-5-((4-(2-aminoethoxy)-3-((methylsulfinyl)methyl)phenyl)amino)-7-(cyclopropylamino)pyrazolo[1,5-a]pyrimidine-3-carbonitrile], the melting point (in general, the temperature, or range, at which the solid turns liquid) was in the range of 206 to 208 °C. Further, on purified CK2α enzyme, the inhibition constant Ki (in general, a dissociation constant, usually derived from enzyme kinetics or from competition with a known ligand) is below 2.5 nM.

The compound `CS(=O)(=O)Cc1cc(Nc2cc(NC3CC3)n3ncc(C#N)c3n2)ccc1N1CCC1` [Example 32, 5-((4-(Azetidin-1-yl)-3-((methylsulfonyl)methyl)phenyl)amino)-7-(cyclopropylamino)pyrazolo[1,5-a]pyrimidine-3-carbonitrile] displayed a melting point of 220 to 222 °C. Moreover, the inhibition constant Ki on purified CK2α enzyme was below 2.5 nM.

For `C[S+]([O-])Cc1cc(Nc2cc(NC3CC3)n3ncc(C#N)c3n2)ccc1C1=CCCNC1.O=C(O)C(F)(F)F` (racemic) [Example 53, (±)-7-(cyclopropylamino)-5-((3-((methylsulfinyl)methyl)-4-(1,2,5,6-tetrahydropyridin-3-yl)phenyl)amino)pyrazolo[1,5-a]pyrimidine-3-carbonitrile mono trifluoroacetic acid salt], the melting point is 126 to 130 °C. In addition, the inhibitory constant (Ki) on purified CK2α enzyme is 2.5 to 10 nM.

On to `CS(=O)(=O)Cc1cc(Nc2cc(NC3CC3)n3ncc(C#N)c3n2)ccc1OC(F)F` [Example 20, 7-(Cyclopropylamino)-5-((4-(difluoromethoxy)-3-((methylsulfonyl)methyl)phenyl)amino)pyrazolo[1,5-a]pyrimidine-3-carbonitrile], for which the melting point was above 260 °C. Besides, the Ki on purified CK2α enzyme is below 2.5 nM.

In turn, `COc1ccc(Nc2cc(NC3CC3)n3ncc(C#N)c3n2)cc1CS(C)(=O)=O` [Example 18, 7-(Cyclopropylamino)-5-((4-methoxy-3-((methylsulfonyl)methyl)phenyl)amino)pyrazolo[1,5-a]pyrimidine-3-carbonitrile] had a melting point of 233 to 235 °C. This compound also gave a Ki at purified CK2α enzyme below 2.5 nM.

In turn, `C[S+]([O-])Cc1cc(Nc2cc(NC3CC3)n3ncc(C#N)c3n2)ccc1N1CCC1` (racemic) [Example 37, (±)-5-((4-(Azetidin-1-yl)-3-((methylsulfinyl)methyl)phenyl)amino)-7-(cyclopropylamino)pyrazolo[1,5-a]pyrimidine-3-carbonitrile] came in with a melting point of 204 to 207 °C. This compound also came in with an inhibition constant Ki at purified CK2α enzyme below 2.5 nM.

For the compound `COc1ccc(Nc2cc(NC3CC3)n3ncc(C#N)c3n2)cc1C[S+](C)[O-]` (racemic) [Example 17, (±)-7-(Cyclopropylamino)-5-((4-methoxy-3-((methylsulfinyl)methyl)phenyl)amino)pyrazolo[1,5-a]pyrimidine-3-carbonitrile], the melting point fell in the range of 227 to 229 °C. The inhibition constant (Ki) at purified CK2α enzyme is below 2.5 nM.

In turn, `CN(CC1(N)CC1)c1ccc(Nc2cc(NC3CC3)n3ncc(C#N)c3n2)cc1C[S+](C)[O-]` (racemic) (as salt: trifluoroacetic acid salt) [Example 65, (±)-5-((4-(((1-Aminocyclopropyl)methyl)(methyl)amino)-3-((methylsulfinyl)methyl)phenyl)amino)-7-(cyclopropylamino)pyrazolo[1,5-a]pyrimidine-3-carbonitrile mono trifluoroacetic acid salt] had a melting point of 126 to 130 °C.

Take `C[S+]([O-])Cc1cc(Nc2cc(NC3CC3)n3ncc(C#N)c3n2)ccc1C1CCNC1` (racemic) (as salt: trifluoroacetic acid salt) [Example 63, (±)-7-(Cyclopropylamino)-5-((3-((methylsulfinyl)methyl)-4-((R,S)-pyrrolidin-3-yl)phenyl)amino)pyrazolo[1,5-a]pyrimidine-3-carbonitrile mono trifluoroacetic acid salt]: the melting point lay within 173 to 177 °C.

`CN(CC(C)(C)N)c1ccc(Nc2cc(NC3CC3)n3ncc(C#N)c3n2)cc1C[S+](C)[O-]` (racemic) (as salt: trifluoroacetic acid salt) [Example 67, (±)-5-((4-((2-Amino-2-methylpropyl)(methyl)amino)-3-((methylsulfinyl)methyl)phenyl)amino)-7-(cyclopropylamino)pyrazolo[1,5-a]pyrimidine-3-carbonitrile mono trifluoroacetic acid salt] had a melting point of 141 to 145 °C.

`C[S+]([O-])Cc1cc(Nc2cc(NC3CC3)n3ncc(C#N)c3n2)ccc1C1(N)CC1` (racemic) (as salt: trifluoroacetic acid salt) [Example 59, (±)-5-((4-(1-Aminocyclopropyl)-3-((methylsulfinyl)methyl)phenyl)amino)-7-(cyclopropylamino)pyrazolo[1,5-a]pyrimidine-3-carbonitrile mono trifluoroacetic acid salt]: the melting point fell in the range of 185 to 189 °C.

In turn, `CN(CCN)c1ccc(Nc2cc(NC3CC3)c3ncc(C#N)n3n2)cc1CS(C)(=O)=O` (as salt: trifluoroacetic acid salt) [Example 48, 6-((4-((2-aminoethyl)(methyl)amino)-3-((methylsulfonyl)methyl)phenyl)amino)-8-(cyclopropylamino)imidazo[1,2-b]pyridazine-3-carbonitrile mono trifluoroacetic acid salt] yielded a melting point of 121 to 124 °C.

`CN(CC1(N)CC1)c1ccc(Nc2cc(NC3CC3)n3ncc(C#N)c3n2)cc1CS(C)(=O)=O` (as salt: trifluoroacetic acid salt) [Example 66, 5-((4-(((1-aminocyclopropyl)methyl)(methyl)amino)-3-((methylsulfonyl)methyl)phenyl)amino)-7-(cyclopropylamino)pyrazolo[1,5-a]pyrimidine-3-carbonitrile mono trifluoroacetic acid salt] yielded a melting point of 185 to 189 °C.

In turn, `C[S+]([O-])Cc1cc(Nc2cc(NC3CC3)n3ncc(C#N)c3n2)ccc1OC(F)F` (racemic) [Example 19, (±)-7-(Cyclopropylamino)-5-((4-(difluoromethoxy)-3-((methylsulfinyl)methyl)phenyl)amino)pyrazolo[1,5-a]pyrimidine-3-carbonitrile] came in with a melting point of 233 to 235 °C. At purified CK2α enzyme, the Ki was below 2.5 nM.

`CS(=O)(=O)Cc1cc(Nc2cc(NC3CC3)n3ncc(C#N)c3n2)ccc1OCCN.Cl` [Example 26, 5-((4-(2-aminoethoxy)-3-((methylsulfonyl)methyl)phenyl)amino)-7-(cyclopropylamino)pyrazolo[1,5-a]pyrimidine-3-carbonitrile hydrochloric acid salt] had a melting point of 238 to 240 °C. This compound yielded a Ki on purified CK2α enzyme of 2.5 to 10 nM.

As for `CN(CCN)c1ccc(Nc2cc(NC3CC3)c3ncc(C#N)n3n2)cc1C[S+](C)[O-]` (racemic) (as salt: trifluoroacetic acid salt) [Example 47, (±)-6-((4-((2-Aminoethyl)(methyl)amino)-3-((methylsulfinyl)methyl)phenyl)amino)-8-(cyclopropylamino)imidazo[1,2-b]pyridazine-3-carbonitrile mono trifluoroacetic acid salt], the melting point lay within 91 to 94 °C.

`CN(CCN)c1ccc(Nc2nc(NC3CC3)c3ncc(C#N)n3n2)cc1C[S+](C)[O-]` (racemic) (as salt: trifluoroacetic acid salt) [Example 49, (±)-2-((4-((2-aminoethyl)(methyl)amino)-3-((methylsulfinyl)methyl)phenyl)amino)-4-(cyclopropylamino)imidazo[2,1-f][1,2,4]triazine-7-carbonitrile mono trifluoroacetic acid salt] came in with a melting point of 93 to 97 °C.

Regarding `CN(CCN)c1ccc(Nc2nc(NC3CC3)n3ncc(C#N)c3n2)cc1C[S+](C)[O-]` (racemic) (as salt: trifluoroacetic acid salt) [Example 51, (±)-2-((4-((2-aminoethyl)(methyl)amino)-3-((methylsulfinyl)methyl)phenyl)amino)-4-(cyclopropylamino)pyrazolo[1,5-a][1,3,5]triazine-8-carbonitrile mono trifluoroacetic acid salt], the melting point lay in the range of 78 to 82 °C.

For the compound `CN(C)c1ccc(Nc2cc(NC3CC3)n3ncc(C#N)c3n2)cc1C[S+](C)[O-]` (racemic) [Example 33, (±)-7-(Cyclopropylamino)-5-((4-(dimethylamino)-3-((methylsulfinyl)methyl)phenyl)amino)pyrazolo[1,5-a]pyrimidine-3-carbonitrile], the melting point is 229 to 233 °C. The same compound registered an inhibition constant Ki on purified CK2α enzyme below 2.5 nM.
